Measurements as given in PubChem BioAssay (NCI).
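Five compound concentrations were applied to cells in 96-well plates for 48 hours; endpoints were derived by simple linear interpolation of the resulting dose-response curve. The concentration for full growth arrest is given as TGI.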

Experiments:
Experiment in all cases: NCI tumour cell line growth inhibition, 48 h
DLD-1 colon = system: DLD-1 colon
786-0 renal = system: 786-0 renal
SF-268 CNS = system: SF-268 CNS
U251 CNS = system: U251 CNS
A549 NSCLC = system: A549 NSCLC
RXF 393 renal = system: RXF 393 renal
HT29 colon = system: HT29 colon
OVCAR-8 ovarian = system: OVCAR-8 ovarian
TK-10 renal = system: TK-10 renal
ACHN renal = system: ACHN renal
HCT-116 colon = system: HCT-116 colon
SF-539 CNS = system: SF-539 CNS
MOLT-4 leukemia = system: MOLT-4 leukemia
UACC-62 melanoma = system: UACC-62 melanoma
HL-60(TB) leukemia = system: HL-60(TB) leukemia
UO-31 renal = system: UO-31 renal
SW-620 colon = system: SW-620 colon
CCRF-CEM leukemia = system: CCRF-CEM leukemia
SR leukemia = system: SR leukemia
NCI-H23 lung = system: NCI-H23 lung
RPMI-8226 leukemia = system: RPMI-8226 leukemia
LXFL 529 NSCLC = system: LXFL 529 NSCLC
IGROV1 ovarian = system: IGROV1 ovarian
OVCAR-3 ovarian = system: OVCAR-3 ovarian
SK-MEL-28 melanoma = system: SK-MEL-28 melanoma
M19-MEL melanoma = system: M19-MEL melanoma
SK-MEL-2 melanoma = system: SK-MEL-2 melanoma
NCI-H522 lung = system: NCI-H522 lung
SN12C renal = system: SN12C renal
HOP-62 NSCLC = system: HOP-62 NSCLC
NCI-H460 lung = system: NCI-H460 lung
CAKI-1 renal = system: CAKI-1 renal
EKVX NSCLC = system: EKVX NSCLC
HCT-15 colon = system: HCT-15 colon
OVCAR-5 ovarian = system: OVCAR-5 ovarian
MALME-3M melanoma = system: MALME-3M melanoma
SK-OV-3 ovarian = system: SK-OV-3 ovarian
KM12 colon = system: KM12 colon
A498 renal = system: A498 renal
SNB-19 CNS = system: SNB-19 CNS
K-562 leukemia = system: K-562 leukemia
HOP-18 NSCLC = system: HOP-18 NSCLC
HCC-2998 colon = system: HCC-2998 colon
NCI-H226 lung = system: NCI-H226 lung
COLO 205 colon = system: COLO 205 colon
KM20L2 colon = system: KM20L2 colon
LOX IMVI melanoma = system: LOX IMVI melanoma
OVCAR-4 ovarian = system: OVCAR-4 ovarian
M14 melanoma = system: M14 melanoma
HOP-92 NSCLC = system: HOP-92 NSCLC
SNB-78 CNS = system: SNB-78 CNS
SF-295 CNS = system: SF-295 CNS
UACC-257 melanoma = system: UACC-257 melanoma
DMS 273 small cell lung = system: DMS 273 small cell lung

Measured: TGI

Cc1nnc(N=Nc2c(O)[nH]c3c(Cl)cc(Cl)cc23)n1N
> 100 µM: DLD-1 colon | 786-0 renal | SF-268 CNS | U251 CNS | A549 NSCLC | RXF 393 renal | HT29 colon | OVCAR-8 ovarian | TK-10 renal | ACHN renal | HCT-116 colon | SF-539 CNS | MOLT-4 leukemia | UACC-62 melanoma | HL-60(TB) leukemia | UO-31 renal | SW-620 colon | CCRF-CEM leukemia | SR leukemia | NCI-H23 lung | RPMI-8226 leukemia | LXFL 529 NSCLC | IGROV1 ovarian | OVCAR-3 ovarian | SK-MEL-28 melanoma | M19-MEL melanoma | SK-MEL-2 melanoma | NCI-H522 lung | SN12C renal | HOP-62 NSCLC | NCI-H460 lung | CAKI-1 renal | EKVX NSCLC | HCT-15 colon | OVCAR-5 ovarian | MALME-3M melanoma | SK-OV-3 ovarian | KM12 colon | A498 renal | SNB-19 CNS | K-562 leukemia | HOP-18 NSCLC | HCC-2998 colon | NCI-H226 lung | COLO 205 colon | KM20L2 colon | LOX IMVI melanoma | OVCAR-4 ovarian | M14 melanoma | HOP-92 NSCLC | SNB-78 CNS | SF-295 CNS | UACC-257 melanoma

CO[C@H]1ON=C(c2c(C)cc(C)cc2C)[C@@H]1C1(c2ccccc2)ON=C(c2c(C)cc(C)cc2C)O1 (some centres not stated)
> 100 µM: DLD-1 colon | SF-268 CNS | U251 CNS | A549 NSCLC | RXF 393 renal | OVCAR-8 ovarian | TK-10 renal | ACHN renal | HCT-116 colon | SF-539 CNS | MOLT-4 leukemia | UACC-62 melanoma | HL-60(TB) leukemia | UO-31 renal | SW-620 colon | CCRF-CEM leukemia | SR leukemia | NCI-H23 lung | RPMI-8226 leukemia | LXFL 529 NSCLC | IGROV1 ovarian | SK-MEL-28 melanoma | M19-MEL melanoma | SK-MEL-2 melanoma | NCI-H522 lung | SN12C renal | NCI-H460 lung | EKVX NSCLC | OVCAR-5 ovarian | MALME-3M melanoma | SK-OV-3 ovarian | KM12 colon | SNB-19 CNS | DMS 273 small cell lung | K-562 leukemia | HOP-18 NSCLC | HCC-2998 colon | COLO 205 colon | KM20L2 colon | LOX IMVI melanoma | HOP-92 NSCLC | SNB-78 CNS | SF-295 CNS | UACC-257 melanoma
